From patent US9402856B2, “Pharmaceutical composition for preventing or treating diabetes containing TENC1 expression or activity suppressor” (POSTECH ACADEMY-INDUSTRY FOUNDATION, priority 2012, dated 2016)
Each block holds one compound with its values, some of them ahead of it. Residues, ends and D or L forms follow the SMILES beside them. *: point of attachment. Cbz = O=C(OCc1ccccc1)*

Experiments:
TENC1 [1] = biological target: T1, TENC1 (Homo sapiens, UniProt Q63HR2, P1246L); test: degradation of IRS-1 protein in myotube overexpressing TENC1, Western blotting; format: cell-based; parameters: expressed in transfected cells; host or cells: L6 myotube (adenoviral overexpression)
T1 sequence (Q63HR2 1-1409 P1246L): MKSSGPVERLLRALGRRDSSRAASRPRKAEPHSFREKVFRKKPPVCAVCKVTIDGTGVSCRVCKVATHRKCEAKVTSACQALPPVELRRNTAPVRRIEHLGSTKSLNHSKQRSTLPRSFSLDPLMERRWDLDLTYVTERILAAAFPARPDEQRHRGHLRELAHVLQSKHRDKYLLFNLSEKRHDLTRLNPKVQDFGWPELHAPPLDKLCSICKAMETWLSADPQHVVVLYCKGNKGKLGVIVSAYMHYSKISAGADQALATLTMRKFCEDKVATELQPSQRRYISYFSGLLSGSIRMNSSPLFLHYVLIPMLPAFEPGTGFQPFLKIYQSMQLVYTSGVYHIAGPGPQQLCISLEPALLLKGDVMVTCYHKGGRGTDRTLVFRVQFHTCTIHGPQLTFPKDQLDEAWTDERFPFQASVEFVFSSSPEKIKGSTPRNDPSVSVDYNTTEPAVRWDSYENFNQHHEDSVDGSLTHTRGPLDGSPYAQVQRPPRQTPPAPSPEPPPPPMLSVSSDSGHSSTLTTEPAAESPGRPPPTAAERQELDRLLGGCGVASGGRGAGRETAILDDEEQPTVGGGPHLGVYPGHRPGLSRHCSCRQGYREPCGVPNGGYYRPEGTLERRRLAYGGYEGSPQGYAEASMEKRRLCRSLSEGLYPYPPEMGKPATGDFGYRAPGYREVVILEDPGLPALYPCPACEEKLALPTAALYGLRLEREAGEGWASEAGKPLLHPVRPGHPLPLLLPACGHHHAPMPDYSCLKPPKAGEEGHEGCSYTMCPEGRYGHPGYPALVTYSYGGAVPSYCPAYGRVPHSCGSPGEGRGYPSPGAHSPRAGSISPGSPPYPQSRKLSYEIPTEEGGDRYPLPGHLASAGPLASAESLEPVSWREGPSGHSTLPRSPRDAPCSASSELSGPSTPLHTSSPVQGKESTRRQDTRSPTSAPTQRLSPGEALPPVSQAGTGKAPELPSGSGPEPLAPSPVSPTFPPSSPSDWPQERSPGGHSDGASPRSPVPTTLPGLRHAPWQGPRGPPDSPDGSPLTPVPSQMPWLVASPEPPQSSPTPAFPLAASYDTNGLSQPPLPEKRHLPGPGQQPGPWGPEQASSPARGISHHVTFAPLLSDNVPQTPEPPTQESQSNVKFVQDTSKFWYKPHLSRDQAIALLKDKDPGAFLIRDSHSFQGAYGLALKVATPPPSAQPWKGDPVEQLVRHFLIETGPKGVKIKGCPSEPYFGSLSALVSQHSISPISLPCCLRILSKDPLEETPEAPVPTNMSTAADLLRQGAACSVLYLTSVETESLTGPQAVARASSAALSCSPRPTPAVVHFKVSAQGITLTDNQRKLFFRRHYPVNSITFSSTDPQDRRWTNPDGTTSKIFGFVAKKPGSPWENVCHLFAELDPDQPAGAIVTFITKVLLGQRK
Experimental: In order to know a physiological function of TENC1, TENC1 was overexpressed in L6 myotube (muscle cell) that plays a main role in IRS-1, using an adenovirus. Using the same method as in Example 1, the quantitative PCR was performed and it was confirmed that TENC1 mRNA was increased eightfold to tenfold in the myotube. Then, using the same method as in Example 2, phosphorylation of proteins associated with IRS-1 was determined.
Accordingly, in order to determine the reason for the decrease of IRS-1, it was determined whether TENC1 influences a ubiquitin proteasome pathway or serine phosphorylation of IRS-1 by Western blotting. In order to determine whether TENC1 influences a protein-degrading mechanism, MG132, which is an inhibitor of a protein-degrading enzyme (proteasome), was treated.
In order to determine whether the PTPase activity of TENC1 influences degradation of IRS-1, vanadate was treated to determine whether degradation of IRS-1 is suppressed by Western blotting.

TENC1 [2] = biological target: T1, TENC1; test: PTPase activity of separated TENC1, malachite green assay; format: biochemical; parameters: expressed in transfected cells; details: separated TENC1 proteins, FIG. 16A
Experimental: In addition, in order to measure the PTPase activity of TENC1, first, TENC1 was separated from HEK293 cell lines using a Flag immunoprecipitation/Flag peptide elution system. Then, the PTPase activity of the separated TENC1 was measured over time, using peptides having phosphotyrosine. The PTPase activity was analyzed by a malachite green assay method. As a control group, PTEN (a phosphatase and tensin homolog) or the TENC1 CS variant was used.
As a result, it was confirmed that the PTPase activity of TENC1 was inhibited by 60% or more (FIG. 16A).

PTPase domain of TENC1 = biological target: T2, PTPase domain of TENC1 (Homo sapiens, UniProt Q63HR2, P1246L); test: binding of TENC1 and IRS-1, immunoprecipitation using IRS-1; details: FIG. 5
T2 construct: expressed in transfected cells
T2 sequence (Q63HR2 1-1409 P1246L): T1 sequence (Q63HR2 1-1409 P1246L)
Experimental: In order to determine a mechanism of TENC1 that suppresses phosphorylation of IRS-1, immunoprecipitation was performed using IRS-1. In a control experiment, vanadate, which is an analogue of phosphotyrosine and binds to a PTPase domain to inhibit the PTPase activity, was used.

Compound: CC(C)C[C@@H](C=O)NC(=O)[C@H](CC(C)C)NC(=O)[C@H](CC(C)C)NC(=O)OCc1ccccc1 [MG132] (Cbz-Leu-Leu-Leu-aldehyde)
amount of IRS-1 (TENC1 [1]; with and without insulin, TENC1 overexpressed, FIG. 9): the decreased amount of IRS-1 was restored

inhibition at 20 µM (TENC1 [2]): ≥ 60%
Compound: C[C@H]1[C@H](C)CC[C@]2(C(=O)O)CC[C@]3(C)C(=CC[C@@H]4[C@@]5(C)CC[C@H](O)C(C)(C)[C@@H]5CC[C@]43C)[C@H]12 [ursolic acid]
degree of degradation of IRS-1 protein (TENC1 [1]; myotube overexpressing TENC1, increasing concentration, FIG. 16C): IRS-1 is restored to a level similar to a control group

Compound: [O]=[V]([O-])([O-])[O-] [vanadate]
binding of TENC1 WT with IRS-1 (PTPase domain of TENC1): binding with IRS-1 decreased
degradation of IRS-1 (TENC1 [1]; vanadate treated, Western blotting, FIG. 10): degradation of IRS-1 was suppressed
